In assay [1] the target is T1, Serine/threonine-protein kinase TAO2 (Homo sapiens) (UniProt Q9UL54).
T1 sequence (whole entry): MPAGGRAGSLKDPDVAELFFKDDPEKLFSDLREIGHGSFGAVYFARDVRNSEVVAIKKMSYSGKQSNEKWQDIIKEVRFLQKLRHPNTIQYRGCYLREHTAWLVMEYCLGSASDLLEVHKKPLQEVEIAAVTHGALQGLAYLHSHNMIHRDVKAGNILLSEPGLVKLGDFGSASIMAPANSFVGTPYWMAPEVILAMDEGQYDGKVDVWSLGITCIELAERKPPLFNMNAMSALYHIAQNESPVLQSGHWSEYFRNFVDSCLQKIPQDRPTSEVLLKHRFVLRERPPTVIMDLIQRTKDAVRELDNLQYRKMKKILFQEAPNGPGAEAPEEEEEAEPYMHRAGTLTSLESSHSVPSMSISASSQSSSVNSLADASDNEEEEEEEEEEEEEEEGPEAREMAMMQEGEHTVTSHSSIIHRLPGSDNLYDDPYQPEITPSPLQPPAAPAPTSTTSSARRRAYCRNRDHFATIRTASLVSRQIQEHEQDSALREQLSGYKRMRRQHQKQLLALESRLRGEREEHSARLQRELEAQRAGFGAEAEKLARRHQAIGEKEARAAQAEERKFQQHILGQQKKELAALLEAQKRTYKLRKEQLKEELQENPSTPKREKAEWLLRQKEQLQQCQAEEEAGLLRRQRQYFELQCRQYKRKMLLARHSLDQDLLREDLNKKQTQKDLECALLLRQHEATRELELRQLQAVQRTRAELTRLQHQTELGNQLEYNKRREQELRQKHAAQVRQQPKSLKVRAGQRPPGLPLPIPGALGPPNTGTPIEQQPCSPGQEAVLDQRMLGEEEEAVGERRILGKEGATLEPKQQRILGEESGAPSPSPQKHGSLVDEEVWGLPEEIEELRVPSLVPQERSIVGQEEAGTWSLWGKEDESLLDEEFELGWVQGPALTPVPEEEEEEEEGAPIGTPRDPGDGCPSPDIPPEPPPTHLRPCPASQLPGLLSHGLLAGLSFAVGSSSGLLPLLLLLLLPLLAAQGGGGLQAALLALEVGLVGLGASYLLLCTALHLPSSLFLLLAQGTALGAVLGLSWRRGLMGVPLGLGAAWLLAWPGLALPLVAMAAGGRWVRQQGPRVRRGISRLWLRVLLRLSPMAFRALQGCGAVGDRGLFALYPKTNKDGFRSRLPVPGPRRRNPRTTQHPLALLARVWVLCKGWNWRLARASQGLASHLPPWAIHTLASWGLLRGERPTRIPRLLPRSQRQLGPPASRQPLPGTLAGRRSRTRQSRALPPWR
The assay can be described thus: Selectivity interaction (KinomeScan (DiscoverX)) EUB0001619a TAOK2. The settings on record: at 1 µM.

Assay [2] has as its target T2, Ephrin type-B receptor 2 (Homo sapiens) (UniProt P29323).
T2 sequence (whole entry): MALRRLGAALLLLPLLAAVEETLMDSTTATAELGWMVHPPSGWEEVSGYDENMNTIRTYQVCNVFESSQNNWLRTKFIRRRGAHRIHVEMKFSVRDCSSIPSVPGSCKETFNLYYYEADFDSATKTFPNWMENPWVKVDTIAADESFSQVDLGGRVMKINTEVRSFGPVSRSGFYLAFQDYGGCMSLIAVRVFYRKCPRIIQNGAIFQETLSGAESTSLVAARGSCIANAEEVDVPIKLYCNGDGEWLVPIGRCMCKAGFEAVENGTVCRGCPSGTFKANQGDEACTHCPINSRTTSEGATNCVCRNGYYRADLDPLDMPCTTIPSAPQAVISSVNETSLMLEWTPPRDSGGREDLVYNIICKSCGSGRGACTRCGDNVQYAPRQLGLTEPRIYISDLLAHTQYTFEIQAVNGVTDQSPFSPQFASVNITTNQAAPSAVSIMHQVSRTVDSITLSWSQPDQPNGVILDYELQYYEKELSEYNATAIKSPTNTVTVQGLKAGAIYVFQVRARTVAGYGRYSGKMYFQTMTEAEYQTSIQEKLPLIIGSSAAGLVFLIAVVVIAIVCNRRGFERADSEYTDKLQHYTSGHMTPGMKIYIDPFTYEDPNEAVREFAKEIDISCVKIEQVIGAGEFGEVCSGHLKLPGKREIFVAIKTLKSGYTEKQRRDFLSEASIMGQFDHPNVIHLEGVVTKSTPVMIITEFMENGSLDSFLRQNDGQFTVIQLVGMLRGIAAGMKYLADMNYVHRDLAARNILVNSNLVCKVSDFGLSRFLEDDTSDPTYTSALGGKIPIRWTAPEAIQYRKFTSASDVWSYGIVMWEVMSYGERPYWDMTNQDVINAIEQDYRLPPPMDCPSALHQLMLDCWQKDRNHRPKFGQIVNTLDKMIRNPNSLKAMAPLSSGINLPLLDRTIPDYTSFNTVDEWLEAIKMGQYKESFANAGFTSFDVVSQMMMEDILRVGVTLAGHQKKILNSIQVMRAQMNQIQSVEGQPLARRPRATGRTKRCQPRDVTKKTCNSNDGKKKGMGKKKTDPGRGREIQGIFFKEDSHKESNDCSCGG
Conditions: at 10 µM.

Assay [3] deals with Serine/threonine-protein kinase MARK2 (Homo sapiens) (UniProt Q7KZI7). Description: Selectivity interaction (ActivX KiNativ screen (kinase selectivity in THP-1 cell lysates)) EUB0000639a MARK2. The format is subcellular. The settings on record: lysate, at 1 µM.
Sequence of Serine/threonine-protein kinase MARK2 (Homo sapiens) (Q7KZI7 whole entry): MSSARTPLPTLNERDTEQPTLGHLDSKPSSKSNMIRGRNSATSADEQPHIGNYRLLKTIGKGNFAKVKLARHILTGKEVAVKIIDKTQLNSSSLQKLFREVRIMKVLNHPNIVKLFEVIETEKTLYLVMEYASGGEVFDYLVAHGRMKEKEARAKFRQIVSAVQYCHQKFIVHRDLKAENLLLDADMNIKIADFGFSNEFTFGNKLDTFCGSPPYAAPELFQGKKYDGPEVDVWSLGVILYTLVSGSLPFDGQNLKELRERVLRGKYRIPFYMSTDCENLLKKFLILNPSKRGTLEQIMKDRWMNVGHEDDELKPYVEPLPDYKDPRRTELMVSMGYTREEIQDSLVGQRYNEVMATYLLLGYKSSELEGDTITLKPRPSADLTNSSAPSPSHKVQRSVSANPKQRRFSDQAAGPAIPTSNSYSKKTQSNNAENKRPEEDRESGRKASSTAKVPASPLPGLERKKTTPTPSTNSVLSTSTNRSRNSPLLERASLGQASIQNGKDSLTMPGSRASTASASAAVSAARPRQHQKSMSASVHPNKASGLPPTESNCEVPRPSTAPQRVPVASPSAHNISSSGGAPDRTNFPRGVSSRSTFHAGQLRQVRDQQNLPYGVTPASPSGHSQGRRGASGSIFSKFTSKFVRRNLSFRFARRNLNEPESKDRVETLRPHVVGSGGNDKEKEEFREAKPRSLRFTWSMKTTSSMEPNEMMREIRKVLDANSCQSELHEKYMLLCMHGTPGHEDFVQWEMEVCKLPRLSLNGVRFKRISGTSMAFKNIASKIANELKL

`N#Cc1cccc(-c2c[nH]c3ncnc(N4CCOCC4)c23)c1` returned a % of control in assay [1] of 100%.
The compound `CCN(CC)CCCCNc1ncc2cc(-c3cc(OC)cc(OC)c3)c(NC(=O)NC(C)(C)C)nc2n1` gave a % of control in assay [2] of 100%.
On to `CC[C@@H]1[C@H](F)C(=O)N[C@@H]1COc1nccc2cc(C(N)=O)c(OC)cc12` [ZIMLOVISERTIB], for which the % of inhibition in assay [3] came to 4.3%.
